{"source": "ChEMBL document CHEMBL3638847", "about": "“Substituted piperidine compounds and their use as orexin receptor modulators” (2015)", "key": {"[1]": {"molecular_target": "T1, Orexin/Hypocretin receptor type 1 (Rattus norvegicus, UniProt P56718)", "T1 sequence (P56718 whole entry)": "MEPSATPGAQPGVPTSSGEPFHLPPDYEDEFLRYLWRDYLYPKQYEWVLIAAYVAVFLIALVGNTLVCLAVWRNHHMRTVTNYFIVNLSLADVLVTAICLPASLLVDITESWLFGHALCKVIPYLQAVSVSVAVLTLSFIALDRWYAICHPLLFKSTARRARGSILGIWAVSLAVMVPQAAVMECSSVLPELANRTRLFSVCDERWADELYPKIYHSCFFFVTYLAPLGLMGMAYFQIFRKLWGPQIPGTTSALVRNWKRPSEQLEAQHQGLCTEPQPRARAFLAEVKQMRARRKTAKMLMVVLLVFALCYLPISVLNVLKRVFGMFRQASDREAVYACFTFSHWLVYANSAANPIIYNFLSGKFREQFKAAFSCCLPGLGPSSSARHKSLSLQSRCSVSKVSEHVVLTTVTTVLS", "assay": "(§1) Radioligand Binding Assay: Human Embryonic Kidney 293 cells (HEK293) stably expressing rat orexin 1 receptor(Genebank accession number NM_001525) or […] (CHO) stably expressing human orexin 1 receptor (Genebank accession number […]) were grown to confluency in DMEM (Hyclone, cat # SH30022), 10% FBS, IX Pen/Strep, IX sodium pyruvate, 10 mM HEPES, 600 ug/mL G418 and DMEM/F12 (Gibco, Cat #1 1039), 10%FBS, IX Pen/Strep, 600 ug/mL G418 media, respectively on 150 cm2 tissue culture plates, washed with 5 mM EDTA in PBS (HyClone Dulbecco's Phoshpate Buffered Saline IX with Calcium and Magnesium, Cat # SH30264.01, hereafter referred to simply as PBS) and scraped into 50 ml tubes. After centrifugation (2K xG, 5 min at 4 C), the supernatant was aspirated and the pellets frozen and stored at -80C. Cells were resuspended in PBS in the presence of 1 tablet of protease inhibitor cocktail (Roche, Cat. #1 1836145001) per 50 mL. Each cell pellet from a 15 cm plate was resuspended in 10 mL.", "assay_type": "cell-based"}, "[2]": {"molecular_target": "T2, Orexin/Hypocretin receptor type 1 (Homo sapiens, UniProt O43613)", "T2 sequence (O43613 whole entry)": "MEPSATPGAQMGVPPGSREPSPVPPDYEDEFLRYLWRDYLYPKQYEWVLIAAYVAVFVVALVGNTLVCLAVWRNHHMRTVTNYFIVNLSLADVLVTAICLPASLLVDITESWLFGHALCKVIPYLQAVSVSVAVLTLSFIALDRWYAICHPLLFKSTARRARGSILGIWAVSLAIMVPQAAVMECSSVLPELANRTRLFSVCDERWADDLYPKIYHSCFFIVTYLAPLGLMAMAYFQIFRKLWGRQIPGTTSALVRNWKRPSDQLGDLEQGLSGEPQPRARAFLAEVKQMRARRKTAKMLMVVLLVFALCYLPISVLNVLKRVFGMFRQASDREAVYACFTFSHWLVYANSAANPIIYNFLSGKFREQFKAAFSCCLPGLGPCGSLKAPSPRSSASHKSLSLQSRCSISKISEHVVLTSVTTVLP", "assay": "as §1", "assay_type": "cell-based"}, "Orexin receptor type 2": {"molecular_target": "T3, Orexin receptor type 2 (Homo sapiens, UniProt O43614)", "T3 sequence (O43614 whole entry)": "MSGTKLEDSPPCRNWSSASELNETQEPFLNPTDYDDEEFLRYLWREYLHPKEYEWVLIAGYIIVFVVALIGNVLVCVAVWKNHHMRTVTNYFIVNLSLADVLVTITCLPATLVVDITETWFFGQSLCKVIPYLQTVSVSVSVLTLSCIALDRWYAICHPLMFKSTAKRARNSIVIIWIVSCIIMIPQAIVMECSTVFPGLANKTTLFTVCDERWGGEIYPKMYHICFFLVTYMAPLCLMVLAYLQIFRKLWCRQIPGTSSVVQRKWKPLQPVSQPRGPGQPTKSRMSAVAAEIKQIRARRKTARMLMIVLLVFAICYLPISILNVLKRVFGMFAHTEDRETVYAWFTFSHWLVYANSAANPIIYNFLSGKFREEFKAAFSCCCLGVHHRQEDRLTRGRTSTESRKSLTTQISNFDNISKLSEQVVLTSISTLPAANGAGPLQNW", "assay": "Radioligand Binding Assay: HEK293 stably expressing human orexin 2 receptor (Genebank accession numberNM_001526) were grown to confluency in DMEM (Hyclone, cat # SH30022) , 10%FBS, IX Pen/Strep, IX NaPyruvate, 10 mM HEPES, 600 ug/ml G418 media on 150 cm2 tissue culture plates, washed with 5 mM EDTA in PBS (HyClone Dulbecco's Phoshpate Buffered Saline IX with Calcium and Magnesium, Cat # SH30264.01, hereafter referred to simply as PBS) and scraped into 50 ml tubes. After centrifugation (2K xG, 5 min at 4°C), the supernatant was aspirated and the pellets frozen and stored at -80°C. Cells were resuspended in PBS in the presence of 1 tablet of protease inhibitor cocktail (Roche, Cat. #11836145001) per 50 mL. Each cell pellet from a 15 cm plate was resuspended in 10 mL, stored on ice, and homogenized for 45 sec just prior to addition to the reactions. Competition binding experiments in 96 well polypropylene plates were performed using [3H]-EMPA (Moraveck Corporation, specific activity = 29.6 Ci/mmol)."}}}
{"compound": "Cc1cnc(C(=O)N2CCC[C@@H](Nc3ccc(C(F)(F)F)cn3)[C@@H]2C)c(-c2ncccn2)c1", "values": [{"measurement": "Ki", "setting": "[1]", "result": 19, "unit": "nM"}, {"measurement": "Ki", "setting": "[2]", "result": 26, "unit": "nM"}, {"measurement": "Ki", "setting": "Orexin receptor type 2", "result": 91, "unit": "nM"}]}
